The values below come from ChEMBL document CHEMBL4414544, “Dihydropyrimidine-2-thiones as Eg5 inhibitors and L-type calcium channel blockers: potential antitumour dual agents” (Medchemcomm, 2019).

One data set deals with HCT-116. Description: Antiproliferative activity against human HCT116 cells incubated for 72 hrs by MTT assay. The data set is classed as functional, cell-based. To be noted: HCT-116, 72 h. For orientation: Tetrazolium assays rely on reduction of a dye to a coloured formazan, in cell work by metabolically active cells.
A further data set has as its system MM1.S. Put plainly: Antiproliferative activity against human MM1S cells incubated for 72 hrs by MTT assay. The data set is classed as functional, cell-based.
Data set [1] has as its system Aorta. Put plainly: Vasodilating activity in Wistar rat aortic rings assessed as reduction in KCl-induced contractions relative to control. The format is functional.
For another data set, the system named is MCF7. Put plainly: Antiproliferative activity against human MCF7 cells incubated for 72 hrs by MTT assay. The following applies: MCF7, 72 h. The format is functional, cell-based.
Data set [2] concerns Aorta. Description: Vasodilating activity in Wistar rat aortic rings assessed as reduction in phenylephrine-induced contractions relative to control. The data set is classed as functional.
The next data set relates to A549. Put plainly: Antiproliferative activity against human A549 cells incubated for 72 hrs by MTT assay. The format is functional, cell-based. The following applies: A549, 72 h.
Data set [3] has as its system Aorta. Description: Vasodilating activity in Wistar rat aortic rings assessed as reduction in KCl-induced contractions. The data set is classed as functional, tissue-based.
In data set [4] the test system is Aorta. Description: Vasodilating activity in Wistar rat aortic rings assessed as reduction in phenylephrine-induced contractions. The data set is classed as functional, tissue-based.
For data set [5], the target named is T1, Kinesin-like protein KIF11 (Homo sapiens) (UniProt P52732).
T1 sequence (whole entry): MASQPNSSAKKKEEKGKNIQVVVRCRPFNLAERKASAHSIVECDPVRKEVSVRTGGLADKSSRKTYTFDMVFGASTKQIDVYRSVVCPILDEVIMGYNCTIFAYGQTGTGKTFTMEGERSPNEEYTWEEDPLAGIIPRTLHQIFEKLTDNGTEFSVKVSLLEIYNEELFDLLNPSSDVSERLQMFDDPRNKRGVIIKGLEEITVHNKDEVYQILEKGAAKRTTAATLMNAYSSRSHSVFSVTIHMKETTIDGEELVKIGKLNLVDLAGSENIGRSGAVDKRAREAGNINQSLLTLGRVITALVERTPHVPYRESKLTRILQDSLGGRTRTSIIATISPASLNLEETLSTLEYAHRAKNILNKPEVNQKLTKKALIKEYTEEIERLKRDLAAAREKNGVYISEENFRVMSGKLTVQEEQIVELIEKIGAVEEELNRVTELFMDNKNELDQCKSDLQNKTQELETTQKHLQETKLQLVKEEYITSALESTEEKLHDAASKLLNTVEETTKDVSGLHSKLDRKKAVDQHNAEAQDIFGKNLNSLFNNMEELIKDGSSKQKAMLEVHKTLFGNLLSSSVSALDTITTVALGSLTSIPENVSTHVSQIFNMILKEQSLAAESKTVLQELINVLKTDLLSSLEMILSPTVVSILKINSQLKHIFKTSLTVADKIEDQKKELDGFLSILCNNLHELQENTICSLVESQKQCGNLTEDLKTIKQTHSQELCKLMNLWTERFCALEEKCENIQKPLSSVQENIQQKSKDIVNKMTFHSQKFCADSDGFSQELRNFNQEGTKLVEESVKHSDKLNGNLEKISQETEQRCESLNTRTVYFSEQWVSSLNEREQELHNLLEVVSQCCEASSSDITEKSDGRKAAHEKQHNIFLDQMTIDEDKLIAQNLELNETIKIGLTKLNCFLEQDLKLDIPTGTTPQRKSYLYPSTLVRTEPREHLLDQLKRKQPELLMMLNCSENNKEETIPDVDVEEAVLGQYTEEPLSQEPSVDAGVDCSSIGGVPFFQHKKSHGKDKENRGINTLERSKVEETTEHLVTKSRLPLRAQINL
Put plainly: Inhibition of Eg5 in human MCF7 cells assessed as increase in monopolar spindle formation at 100 uM incubated for 24 hrs by DAPI staining based confocal microscopic method. The data set is classed as cell-based.

The test system of data set [6] is Aorta. Put plainly: Vasodilating activity in Wistar rat aortic rings assessed as reduction in phenylephrine-induced contractions in presence of Cacl2 in calcium free Krebs medium incubated for 1 hr relative to control. The format is functional. Details: scale not given: the % may be the effect or the level left.
The target in data set [7] is T2, Voltage-gated L-type calcium channel (Rattus norvegicus, UniProt P22002+Q02485+P27732). Description: Inhibition of L-type calcium channel in Wistar rat aortic rings assessed as reduction in (-)-Bay K8644-induced contractions at 10^-4 M measured after 20 mins. The format is […]. The following applies: 100 µM.
Data set [8] is described as follows: Cytotoxicity against human MSC assessed as reduction in cell viability incubated for 72 hrs by MTT assay. The format is ADME.
Data set [9] concerns the target T2, Voltage-gated L-type calcium channel. Description: Inhibition of L-type calcium channel in Wistar rat aortic rings assessed as reduction in (-)-Bay K8644-induced contractions at 10^-5 M measured after 20 mins. The format is […]. The following applies: 10 µM.

pIC50: −log10 of the molar value. Calls of active or inactive are those of the source. The calls are words filed in the database; no cut-off is given here.

For orientation: pIC50 means the negative decadic logarithm of the IC50, by convention in mol/L. In general, Emax refers to the size of the effect at its maximum, as opposed to the concentration needed. With `CCOC(=O)C1=C(C)NC(=S)NC1c1ccc(O)c(OC)c1` (racemic), the pIC50 in the data set with HCT-116 is under 4.00; in the data set on MM1.S, under 4.00; with MCF7, under 4.00; with A549, under 4.00; in the data set with Aorta [3], 4.04; with Aorta [4], 4.54. Also, the maximum response (Emax) stood at 78.3% in the data set on Aorta [1] and 78% in the data set with Aorta [2]. In data set [5], the inhibition entry is “Active”.

As for `CCOC(=O)C1=C(C)NC(=S)NC1c1cccnc1` (racemic), the pIC50 was under 4.00 with HCT-116; under 4.00 in the data set on MM1.S; under 4.00 in the data set with MCF7; under 4.00 in the data set with A549; 4.28 in the data set on Aorta [3]; 4.34 in the data set with Aorta [4]. Further, the Emax with Aorta [1] turned out to be 78.4%; with Aorta [2] it was 80.9%.

Turning to `CCOC(=O)C1=C(C)NC(=S)NC1c1ccc(O)c([N+](=O)[O-])c1` (racemic), the negative logarithm of the IC50 (pIC50) is under 4.00 in the data set with HCT-116; under 4.00 in the data set on MM1.S; under 4.00 in the data set on MCF7; under 4.00 in the data set with A549; 4.42 in the data set on Aorta [3]; 4.59 in the data set with Aorta [4]. The Emax in the data set on Aorta [1] worked out at 57.1%; in the data set on Aorta [2], 62.4%.

As for `CCOC(=O)C1=C(C)NC(=S)NC1c1ccc2c(c1)OCCO2` (racemic), the pIC50 in the data set on HCT-116 is under 4.00; in the data set on MM1.S, under 4.00; with MCF7, under 4.00; in data set [8], under 4.00; with A549, under 4.00; in the data set on Aorta [3] it was 4.92. Also, the pIC50 with Aorta [4] was 5.25. Further, the maximal effect (Emax) in the data set with Aorta [1] turned out to be 71.7%; with Aorta [2], 83.3%. In addition, the Activity in the data set on Aorta [6] was found to be 41.8%. In addition, in data set [7], the “inhibition (INH)” value is listed as “Active”. Also, the inhibition result in data set [5] was “Active”.

`CCOC(=O)C1=C(C)NC(=S)NC1c1ccc2cn[nH]c2c1` (racemic): the pIC50 in the data set with HCT-116 was under 4.00; in the data set on MM1.S it was 4.20; in the data set with MCF7, under 4.00; in data set [8], under 4.00; in the data set with A549 it was under 4.00; in the data set with Aorta [3], 4.44. In addition, the pIC50 in the data set on Aorta [4] is 4.38. Besides, the Emax in the data set with Aorta [1] worked out at 48.5%; in the data set with Aorta [2], 61.2%.

In the case of `CCOC(=O)C1=C(C)NC(=S)NC1c1ccc(OC)c(O)c1` (racemic), the pIC50 is under 4.00 with HCT-116; under 4.00 in the data set on MM1.S; under 4.00 in the data set on MCF7; under 4.00 in the data set on A549; 4.43 in the data set with Aorta [3]; 4.60 in the data set with Aorta [4]. The values for the Emax in the data set on Aorta [1] and with Aorta [2] were 77% and 88.4%, respectively.

As for `CCOC(=O)C1=C(C)N=C(S)NC1c1cccc([N+](=O)[O-])c1` (racemic), the negative-log IC50 (pIC50) in the data set with HCT-116 was 4.24; in the data set on MM1.S, 4.02; with MCF7, 4.49; in data set [8], under 4.00; with A549, 4.35; with Aorta [3] it was 4.80. For the same compound, the pIC50 in the data set on Aorta [4] was 5.49. Moreover, the Emax in the data set on Aorta [1] was determined as 95.4%; in the data set with Aorta [2], 84.9%. For the same compound, the Activity in the data set on Aorta [6] is on record as 18.1%. The “inhibition (INH)” value in [7] and in data set [9] was “Active” in each case. Further, the inhibition entry in data set [5] is “Active”.

In the case of `CCOC(=O)C1=C(C)NC(=S)NC1c1cccc(O)c1` (racemic) [MONASTROL], the pIC50 in the data set with HCT-116 is 5.05; with MM1.S, 5.06; in the data set on MCF7, 4.14; in the data set with A549 it was under 4.00; in the data set on Aorta [3], 5.92; in the data set with Aorta [4] it was 5.16. Further, the Emax with Aorta [1] came to 89.5%; with Aorta [2], 95.2%. In addition, the Activity in the data set on Aorta [6] is reported as 81.8%. In addition, the “inhibition (INH)” value in data set [7] is “Active”.

For `COC(=O)C1=C(C)NC(C)=C(C(=O)OC)C1c1ccccc1[N+](=O)[O-]` [NIFEDIPINE], the pIC50 with HCT-116 was under 4.00; with MM1.S, 4.24; in the data set on MCF7, under 4.00; in data set [8], under 4.00; in the data set on A549, under 4.00; in the data set with Aorta [3], 8.54. The pIC50 with Aorta [4] is 7.72. Further, the values for the Emax in the data set with Aorta [1] and in the data set on Aorta [2] were 98.7% and 75.1%, respectively.
